Article PMC7400437, “Synthesis and Evaluation of the Antibacterial Activities of 13-Substituted Berberine Derivatives” (Antibiotics, 2020)
Like-named read-outs stand apart in the source and are kept apart here.

Assays:
S. aureus [1] = assay: MIC, antimicrobial activity assay; format: cell-based, Staphylococcus aureus (ATCC 6538P); conditions: Staphylococcus aureus
B. subtilis [2] = assay: MIC, antimicrobial activity assay; format: cell-based, Bacillus subtilis (ATCC 6633); conditions: Bacillus subtilis
E. coli = assay: MIC, antimicrobial activity assay; format: cell-based, Escherichia coli (ATCC 8739); conditions: Escherichia coli
P. aeruginosa = assay: MIC, antimicrobial activity assay; format: cell-based, Pseudomonas aeruginosa (ATCC 9027); conditions: Pseudomonas aeruginosa
M. smegmatis = assay: microbe, parasite or virus in culture; format: cell-based, Mycobacterium smegmatis (mc2155, ATCC 700084); conditions: Mycolicibacterium smegmatis, 72 h, read-out: Minimal Inhibitory Concentration (MIC) M. smegmatis
A. gandavensis = assay: MIC, antimicrobial activity assay; format: cell-based, Arthrobacter gandavensis (DSM 2447); conditions: Arthrobacter gandavensis; Table 4, Gram-positive
[3] = system: B. subtilis (Nisin-resistant); assay: MIC, antimicrobial activity assay; format: cell-based, nisin-resistant B. subtilis (DSMZ 347); conditions: Bacillus subtilis, read-out: MIC B. subtilis (Nisin-resistant)
C. difficile = assay: MIC, antimicrobial activity assay; format: cell-based, Clostridium difficile (DSM 1296); conditions: Clostridioides difficile; Table 4, Gram-positive; anaerobic
[4] = system: E. faecalis (Vancomycin-resistant); assay: MIC, antimicrobial activity assay; format: cell-based, vancomycin-resistant Enterococcus faecalis (DSMZ 13591); conditions: Enterococcus faecalis, read-out: MIC E. faecalis (Vancomycin-resistant)
A. baumannii = assay: MIC, antimicrobial activity assay; format: cell-based, Acinetobacter baumannii (CIP 110431); conditions: Acinetobacter baumannii; Table 4, Gram-negative
C. rodentium = assay: MIC, antimicrobial activity assay; format: cell-based, Citrobacter rodentium (ATCC 51116); conditions: Citrobacter rodentium; Table 4, Gram-negative
H. pylori = assay: MIC, antimicrobial activity assay; format: cell-based, Helicobacter pylori (ATCC 43504); conditions: Helicobacter pylori; Table 4, Gram-negative; microaerobic
K. pneumonia = assay: MIC, antimicrobial activity assay; format: cell-based, Klebsiella pneumoniae (DSMZ 26371); conditions: Klebsiella pneumoniae; Table 4, Gram-negative
[5] = system: P. aeruginosa (Quinolone-resistant); assay: MIC, antimicrobial activity assay; format: cell-based; conditions: Pseudomonas aeruginosa, read-out: MIC P. aeruginosa (Quinolone-resistant)
S. enterica = assay: MIC, antimicrobial activity assay; format: cell-based, Salmonella enterica (CIP 80.39); conditions: Salmonella enterica; Table 4, Gram-negative
S. flexneri = assay: MIC, antimicrobial activity assay; format: cell-based, Shigella flexneri (ATCC 12022); conditions: Shigella flexneri; Table 4, Gram-negative
V. diabolicus = assay: MIC, antimicrobial activity assay; format: cell-based; conditions: Vibrio diabolicus; Table 4, Gram-negative
V. alginolyticus [6] = assay: Bacterial membrane permeabilization assay (propidium iodide); format: cell-based, Vibrio alginolyticus; conditions: for membrane permeabilization at 4-times MIC, V. alginolyticus: 4-times their MIC; for maximal membrane permeabilization, V. alginolyticus: 120 min exposure to 100 µM, CTAB 300 µM = 100%
Experimental: (§1) Membrane permeabilization by berberine derivatives was evaluated using the cell-impermeable DNA/RNA probe propidium iodide as previously explained. Logarithmic growing bacterial suspensions were prepared from overnight bacterial suspension by 1 in 10 dilution. After 3 h incubation at 37 °C, 200 rpm, bacterial suspensions were centrifuged for 5 min at 3000 rpm. Cell pellets were then resuspended in sterile PBS at about 10^9 cells/mL. Propidium iodide (Sigma Aldrich) was then added to the suspension at a final concentration of 60 µM. 100 µL of this suspension were then transferred into 96-well black plates (Dominique Dutscher) and exposed to increasing concentrations of berberine’s derivative (from 0 to 100 µM, 1:2 dilution). […] All steps of the assay were performed in aerobic condition except for H. pylori which was done in microaerobic condition generated with GasPak unit (Sigma Aldrich). Bacteria were incubated at 37 °C and the kinetics of fluorescence variations (excitation at 530 nm and emission at 590 nm) were then recorded over time using a Synergy Mx microplate reader (Biotek). Cetyl trimethylammonium bromide (CTAB) at 300 µM was used as positive control giving 100% permeabilization. Results were expressed in % of permeabilization. All experiments were done in triplicate.

S. aureus [7] = assay: as above; format: cell-based, Staphylococcus aureus; conditions: for membrane permeabilization at 4-times MIC, S. aureus: 4-times their MIC; for maximal membrane permeabilization, S. aureus: 120 min exposure to 100 µM, CTAB 300 µM = 100%
Experimental: as §1

B. subtilis [8] = assay: as above; format: cell-based, Bacillus subtilis; conditions: for membrane permeabilization at 4-times MIC, B. subtilis: 4-times their MIC; for maximal membrane permeabilization, B. subtilis: 120 min exposure to 100 µM, CTAB 300 µM = 100%
Experimental: as §1

[9] = system: bacterial DNA extracted from B. subtilis; assay: DNA fragmentation assay; conditions: 6 h at 37 °C, 4-times their MIC
[10] = system: bacterial DNA extracted from V. alginolyticus; assay: DNA fragmentation assay; conditions: 6 h at 37 °C, 4-times their MIC
[11] = system: DNA extracted from H. pylori; assay: DNA fragmentation assay; conditions: data not shown
V. alginolyticus [12] = assay: Macromolecule synthesis inhibition assay by fluorescent microscopy (morphological changes); conditions: 4 × MIC, 2 h, 37 °C; for Observed Morphology: DNA, V. alginolyticus: DAPI; for Observed Morphology: cell membrane, V. alginolyticus: FM4-64FX; for Known/Possible Target, V. alginolyticus: inferred from morphology
[13] = Table 1 first screening, read-out: Minimal Inhibitory Concentration (MIC) S. aureus
[14] = Table 4, Gram-positive, read-out: MIC S. aureus
[15] = Table 1 first screening, read-out: Minimal Inhibitory Concentration (MIC) B. subtilis
[16] = Table 4, Gram-positive, read-out: MIC B. subtilis
[17] = Table 1 first screening, read-out: Minimal Inhibitory Concentration (MIC) E. coli
[18] = Table 4, Gram-negative, read-out: MIC E. coli
[19] = Table 1 first screening, read-out: Minimal Inhibitory Concentration (MIC) P. aeruginosa
[20] = Table 4, Gram-negative, read-out: MIC P. aeruginosa

SMILES | MIC (S. aureus [1]; [13]) [µM] | MIC (S. aureus [1]; [14]) [µM] | MIC (B. subtilis [2]; [15]) [µM] | MIC (B. subtilis [2]; [16]) [µM] | MIC (E. coli; [17]) [µM] | MIC (E. coli; [18]) [µM] | MIC (P. aeruginosa; [19]) [µM] | MIC (P. aeruginosa; [20]) [µM] | MIC (M. smegmatis) [µM] | MIC (A. gandavensis) [µM] | MIC [3] [µM] | MIC (C. difficile) [µM] | MIC [4] [µM] | MIC (A. baumannii) [µM] | MIC (C. rodentium) [µM] | MIC (H. pylori) [µM] | MIC (K. pneumonia) [µM] | MIC [5] [µM] | MIC (S. enterica) [µM] | MIC (S. flexneri) [µM] | also measured
COc1cc(C(=O)Cc2c3[n+](cc4c(OC)c(OC)ccc24)CCc2cc4c(cc2-3)OCO4)cc(OC)c1OC(=O)c1ccccc1 [Compound 16, 4-[2-(Berberin-13-yl)acetyl]-2,6-dimethoxyphenyl Benzoate] | 6.25 to 12.5 | 6.25 | 25 | 25 | > 100 | > 100 | > 100 | > 100 | 50 | 100 | 12.5 | 100 | 50 | > 100 | > 100 | 6.25 | > 100 | > 100 | > 100 | > 100 | MIC (V. diabolicus): > 100 µM; membrane permeabilization at 4-times MIC, V. alginolyticus (V. alginolyticus [6]): 20–40%; maximal membrane permeabilization, V. alginolyticus (V. alginolyticus [6]): 80–100%; membrane permeabilization at 4-times MIC, S. aureus (S. aureus [7]): low to no membrane permeabilization; maximal membrane permeabilization, S. aureus (S. aureus [7]): 80–100%; membrane permeabilization at 4-times MIC, B. subtilis (B. subtilis [8]): low to no membrane permeabilization; maximal membrane permeabilization, B. subtilis (B. subtilis [8]): 10–15%; DNA fragmentation, B. subtilis DNA [9]: did not caused DNA fragmentation; DNA fragmentation, V. alginolyticus DNA [10]: did not caused DNA fragmentation; DNA fragmentation, H. pylori DNA [11]: failed at causing the fragmentation of DNA; Observed Morphology: cell elongation, V. alginolyticus (V. alginolyticus [12]): 2–4 times compared to control; Observed Morphology: cells connected, V. alginolyticus (V. alginolyticus [12]): 2–4 cells connected; Observed Morphology: DNA, V. alginolyticus (V. alginolyticus [12]): Decondensed DNA spanning cell; Observed Morphology: cell membrane, V. alginolyticus (V. alginolyticus [12]): Cell membrane thickening; Known/Possible Target, V. alginolyticus (V. alginolyticus [12]): Cell wall biosynthesis
COc1ccc(C(=O)/C=C/c2ccc(Cc3c4[n+](cc5c(OC)c(OC)ccc35)CCc3cc5c(cc3-4)OCO5)cc2)c(O)c1 [Compound 25, (2E)-3-{4-[(Berberin-13-yl)methyl]phenyl}-1-(2-hydroxy-4-methoxyphenyl)prop-2-en-1-one] | 3.12 | 3.12 | 6.25 | 6.25 | > 100 | > 100 | > 100 | > 100 | 25 | 1.5 | 6.25 | 12.5 | 12.5 | > 100 | > 100 | 3.12 | > 100 | > 100 | > 100 | > 100 | MIC (V. diabolicus): > 100 µM; membrane permeabilization at 4-times MIC, V. alginolyticus (V. alginolyticus [6]): 20–40%; maximal membrane permeabilization, V. alginolyticus (V. alginolyticus [6]): 80–100%; membrane permeabilization at 4-times MIC, S. aureus (S. aureus [7]): low to no membrane permeabilization; maximal membrane permeabilization, S. aureus (S. aureus [7]): 80–100%; membrane permeabilization at 4-times MIC, B. subtilis (B. subtilis [8]): low to no membrane permeabilization; maximal membrane permeabilization, B. subtilis (B. subtilis [8]): 10–15%; DNA fragmentation, B. subtilis DNA [9]: did not caused DNA fragmentation; DNA fragmentation, V. alginolyticus DNA [10]: did not caused DNA fragmentation; DNA fragmentation, H. pylori DNA [11]: failed at causing the fragmentation of DNA; Observed Morphology: cell elongation, V. alginolyticus (V. alginolyticus [12]): 2–7 times compared to control; Observed Morphology: cells connected, V. alginolyticus (V. alginolyticus [12]): 1–2 cells connected; Observed Morphology: DNA, V. alginolyticus (V. alginolyticus [12]): Condensed DNA spanning the cell; Observed Morphology: cell membrane, V. alginolyticus (V. alginolyticus [12]): Cell membrane pigmentation; Known/Possible Target, V. alginolyticus (V. alginolyticus [12]): RNA biosynthesis
